ChEMBL document CHEMBL4834496 (ACS Med Chem Lett, 2021)

Tests used:
[1] = molecular target: T1, Botulinum neurotoxin type A (Clostridium botulinum, UniProt P0DPI0); assay: Inhibition of Clostridium botulinum BoNT/A using SNAP-25 (66-mer) as substrate by LC-MS analysis
[2] = molecular target: T1, Botulinum neurotoxin type A; assay: Inhibition of Clostridium botulinum BoNT/A light chain

T1 sequence (P0DPI0 2-448 limits assumed): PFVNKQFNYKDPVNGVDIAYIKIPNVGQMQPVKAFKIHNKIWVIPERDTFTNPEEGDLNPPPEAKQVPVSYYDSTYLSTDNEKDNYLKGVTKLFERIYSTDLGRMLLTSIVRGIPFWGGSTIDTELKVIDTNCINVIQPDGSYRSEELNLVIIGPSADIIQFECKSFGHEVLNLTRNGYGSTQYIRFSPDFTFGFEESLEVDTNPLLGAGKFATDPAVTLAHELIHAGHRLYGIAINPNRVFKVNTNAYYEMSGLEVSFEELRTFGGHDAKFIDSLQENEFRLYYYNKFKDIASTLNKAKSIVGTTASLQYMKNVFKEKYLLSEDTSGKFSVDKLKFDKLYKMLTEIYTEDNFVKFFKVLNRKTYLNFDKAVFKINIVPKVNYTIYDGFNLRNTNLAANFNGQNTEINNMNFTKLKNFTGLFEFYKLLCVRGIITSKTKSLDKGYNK

SMILES: O=C(C[C@@H](CCO)c1ccc(Cl)cc1Cl)NO
- IC50 [1]: 1 µM

SMILES: N=C(N)NCCC[C@H](N)C(=O)NO
- Ki [2]: 60 µM

SMILES: O=C(C[C@H](CCO)c1ccc(Cl)cc1)NO
- IC50 [1]: 36 µM

SMILES: O=C(C[C@H](CCO)c1ccc(Cl)cc1Cl)NO
- IC50 [1]: 21 µM

SMILES: O=C(C[C@@H](CCO)c1ccc(Cl)cc1)NO
- IC50 [1]: 8 µM
